From patent publication US20250195530A1, “POLQ INHIBITORS” (ASTRAZENECA AB, priority 2022, published 2025) come the findings set out here.

The test system of one experiment is DLD-1 cells. The experiment is described as follows: Inhibition of proliferation, DLD-1 BRCA2 wt control (Cell Titre Glo 3D). Format: cell-based. Particulars: mean; for IC50: Homo sapiens, DLD-1, DLD1 BRCA2 wt, read-out: POLQ PD Prolif Lumin DLD1 mean pIC50 (converted); for POLQ PD Prolif Lumin DLD1 mean pIC50: DLD1 BRCA2 wt. The method, boiled down:
(§1)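 Read-out: CellTiter-Glo 3D luminescence, day 7 for wt DLD-1, day 12 for BRCA2−/−, about 8-9 population doublings each. Seeding 1,500 or 3,000 cells/mL respectively. Dose range 10 μM–0.51 nM, 3-fold, 10 points, with re-dosing on day 6. IC50 from curve fit.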

The test system of a further experiment is DLD-1 BRCA2−/− cells. The experiment is described as follows: Homologous recombination synthetic lethal inhibition of proliferation, DLD-1 BRCA2-/- (Cell Titre Glo 3D). Format: cell-based. Conditions: mean; for IC50: Homo sapiens, DLD-1, DLD-1 BRCA2 −/−, read-out: POLQ PD Prolif Lumin BRCA2 −/− mean pIC50 (converted); for POLQ PD Prolif Lumin BRCA2 −/− mean pIC50: DLD-1 BRCA2 −/−. The method, boiled down:
as §1

As for `COc1ccc(Cl)cc1Cn1c(-c2cccc(OCC[C@H](C)C(=O)O)c2Cl)nc2c(OC3(C)CC3)ncnc21` [Example U73, (S)-4-(2-chloro-3-(9-(5-chloro-2-methoxybenzyl)-6-(1-methylcyclopropoxy)-9H-purin-8-yl)phenoxy)-2-methylbutanoic acid], the IC50 in the experiment on DLD-1 cells was more than 10 µM; in the experiment with DLD-1 BRCA2−/− cells, 0.002 µM.
Turning to `COc1ccc(F)cc1Cn1c(-c2cccc(O[C@H]3C[C@@H](C(=O)O)C3)c2Cl)nc2c(OC3(C)CC3)ncnc21` [Example U74, (1s,3s)-3-(2-chloro-3-(9-(5-fluoro-2-methoxybenzyl)-6-(1-methylcyclopropoxy)-9H-purin-8-yl)phenoxy)cyclobutane-1-carboxylic acid], the “POLQ PD Prolif Lumin DLD1 mean pIC50” value in the experiment with DLD-1 cells is less than 5.0. The “POLQ PD Prolif Lumin BRCA2 −/− mean pIC50” value in the experiment with DLD-1 BRCA2−/− cells came out at 7.2.
On to `COc1ccc(Cl)cc1Cn1c(-c2cccc(OCC[C@@H](C)C(=O)O)c2Cl)nc2c(OC3(C)CC3)ncnc21` [Example U75, (R)-4-(2-chloro-3-(9-(5-chloro-2-methoxybenzyl)-6-(1-methylcyclopropoxy)-9H-purin-8-yl)phenoxy)-2-methylbutanoic acid], for which the IC50 in the experiment with DLD-1 cells was more than 10 µM; in the experiment with DLD-1 BRCA2−/− cells it was 0.002 µM.
With `COc1ccc(C(F)(F)F)cc1Cn1c(-c2ccc(OCC[C@H](C)C(=O)O)cc2Cl)nc2c(OC3(C)CC3)ncnc21` [Example U76, (S)-4-(3-chloro-4-(9-(2-methoxy-5-(trifluoromethyl)benzyl)-6-(1-methylcyclopropoxy)-9H-purin-8-yl)phenoxy)-2-methylbutanoic acid], the IC50 with DLD-1 cells is more than 10 µM; in the experiment on DLD-1 BRCA2−/− cells, 0.2 µM.
Consider `C[C@H](CCOc1ccc(-c2nc3c(OC4(C)CC4)ncnc3n2Cc2cc(Cl)ccc2C#N)c(Cl)c1)C(=O)O` [Example U81, (R)-4-(3-chloro-4-(9-(5-chloro-2-cyanobenzyl)-6-(1-methylcyclopropoxy)-9H-purin-8-yl)phenoxy)-2-methylbutanoic acid], for which the IC50 was more than 10 µM in the experiment with DLD-1 cells and 0.02 µM in the experiment on DLD-1 BRCA2−/− cells.
For the compound `C[C@@H](CCOc1ccc(-c2nc3c(OC4(C)CC4)ncnc3n2Cc2cc(Cl)ccc2C#N)c(Cl)c1)C(=O)O` [Example U82, (S)-4-(3-chloro-4-(9-(5-chloro-2-cyanobenzyl)-6-(1-methylcyclopropoxy)-9H-purin-8-yl)phenoxy)-2-methylbutanoic acid], the IC50 in the experiment with DLD-1 cells was more than 10 µM; with DLD-1 BRCA2−/− cells it was 0.0501 µM.
The corresponding values for `COc1ccc(F)cc1Cn1c(-c2cccc(OCCC(=O)O)c2Cl)nc2c(OC3(C)CC3)ncnc21` [Example U83, 3-(2-chloro-3-(9-(5-fluoro-2-methoxybenzyl)-6-(1-methylcyclopropoxy)-9H-purin-8-yl)phenoxy)propanoic acid] are more than 10 µM and 0.0501 µM.
As for `CC1(Oc2ncnc3c2nc(-c2cccc(O[C@H]4C[C@@H](C(=O)O)C4)c2Cl)n3Cc2cc(Cl)ccc2C#N)CC1` [Example U84, (1s,3s)-3-(2-chloro-3-(9-(5-chloro-2-cyanobenzyl)-6-(1-methylcyclopropoxy)-9H-purin-8-yl)phenoxy)cyclobutane-1-carboxylic acid], the “POLQ PD Prolif Lumin DLD1 mean pIC50” value in the experiment with DLD-1 cells is reported as less than 5.0. In addition, the “POLQ PD Prolif Lumin BRCA2 −/− mean pIC50” value with DLD-1 BRCA2−/− cells came to 7.3.
For `C[C@@H](CCOc1ccc(-c2nc3c(OC4(C)CC4)ncnc3n2Cc2cccc(Cl)c2)c(Cl)c1)C(=O)NCC(=O)O` [Example U86, (S)-(4-(3-chloro-4-(9-(3-chlorobenzyl)-6-(1-methylcyclopropoxy)-9H-purin-8-yl)phenoxy)-2-methylbutanoyl)glycine], the IC50 in the experiment with DLD-1 cells was more than 10 µM; with DLD-1 BRCA2−/− cells, 2.51 µM.
The corresponding values for `C[C@@H](CCOc1cccc(-c2nc3c(OC4(C)CC4)ncnc3n2Cc2cc(Cl)ccc2C#N)c1Cl)C(=O)O` [Example U87, (S)-4-(2-chloro-3-(9-(5-chloro-2-cyanobenzyl)-6-(1-methylcyclopropoxy)-9H-purin-8-yl)phenoxy)-2-methylbutanoic acid] are more than 10 µM and 0.0158 µM.
For the compound `COc1ccc(C)cc1Cn1c(-c2cccc(OCCC(=O)O)c2Cl)nc2c(OC3(C)CC3)ncnc21` [Example U89, 3-(2-chloro-3-(9-(2-methoxy-5-methylbenzyl)-6-(1-methylcyclopropoxy)-9H-purin-8-yl)phenoxy)propanoic acid], the IC50 was 7.94 µM in the experiment with DLD-1 cells and 0.0158 µM in the experiment with DLD-1 BRCA2−/− cells.
In the same order, the values of `COc1ccc(Cl)cc1Cn1c(-c2cccc(OCCCOC(C)(C)C(=O)O)c2Cl)nc2c(OC3(C)CC3)ncnc21` [Example U90, 2-(3-(2-chloro-3-(9-(5-chloro-2-methoxybenzyl)-6-(1-methylcyclopropoxy)-9H-purin-8-yl)phenoxy)propoxy)-2-methylpropanoic acid] are more than 10 µM and 0.00501 µM.
As to `COc1ccc(C)cc1Cn1c(-c2cccc(O[C@H]3CC[C@H](C(=O)O)CC3)c2Cl)nc2c(OC3(C)CC3)ncnc21` [Example U91, (1r,4r)-4-(2-chloro-3-(9-(2-methoxy-5-methylbenzyl)-6-(1-methylcyclopropoxy)-9H-purin-8-yl)phenoxy)cyclohexane-1-carboxylic acid], the “POLQ PD Prolif Lumin DLD1 mean pIC50” value in the experiment on DLD-1 cells is reported as less than 5.0. The “POLQ PD Prolif Lumin BRCA2 −/− mean pIC50” value in the experiment with DLD-1 BRCA2−/− cells came to 7.8.
Regarding `COc1ccc(C)cc1Cn1c(-c2cccc(OCCCOCC(=O)O)c2Cl)nc2c(OC3(C)CC3)ncnc21` [Example U93, 2-(3-(2-chloro-3-(9-(2-methoxy-5-methylbenzyl)-6-(1-methylcyclopropoxy)-9H-purin-8-yl)phenoxy)propoxy)acetic acid], the figures for the IC50 with DLD-1 cells and in the experiment on DLD-1 BRCA2−/− cells were more than 10 µM and 0.0126 µM, respectively.
Consider `COc1ccc(C)cc1Cn1c(-c2ccc(OCC[C@H](C)C(=O)O)cc2Cl)nc2c(OC3(C)CC3)ncnc21` [Example U94, (S)-4-(3-chloro-4-(9-(2-methoxy-5-methylbenzyl)-6-(1-methylcyclopropoxy)-9H-purin-8-yl)phenoxy)-2-methylbutanoic acid], for which the IC50 is more than 10 µM in the experiment on DLD-1 cells and 0.0501 µM in the experiment with DLD-1 BRCA2−/− cells.
The corresponding values for `C[C@H](CCOc1cccc(-c2nc3c(OC4(C)CC4)ncnc3n2Cc2cc(Cl)ccc2C#N)c1Cl)C(=O)O` [Example U95, (R)-4-(2-chloro-3-(9-(5-chloro-2-cyanobenzyl)-6-(1-methylcyclopropoxy)-9H-purin-8-yl)phenoxy)-2-methylbutanoic acid] are more than 10 µM and 0.002 µM.
In the case of `CC1(Oc2ncnc3c2nc(-c2cccc(OCCC(=O)O)c2Cl)n3Cc2cc(Cl)ccc2C#N)CC1` [Example U96, 3-(2-chloro-3-(9-(5-chloro-2-cyanobenzyl)-6-(1-methylcyclopropoxy)-9H-purin-8-yl)phenoxy)propanoic acid], the IC50 in the experiment on DLD-1 cells was more than 10 µM; with DLD-1 BRCA2−/− cells, 0.01 µM.
For the compound `CC1(Oc2ncnc3c2nc(-c2cccc(OCCCOCC(=O)O)c2Cl)n3Cc2cc(Cl)ccc2C#N)CC1` [Example U98, 2-(3-(2-chloro-3-(9-(5-chloro-2-cyanobenzyl)-6-(1-methylcyclopropoxy)-9H-purin-8-yl)phenoxy)propoxy)acetic acid], the IC50 is more than 10 µM in the experiment on DLD-1 cells and 0.0316 µM in the experiment on DLD-1 BRCA2−/− cells.
